Where two headings read alike, the source gives them in different places. Numbered stars: 1 amine (or outer) side, 2 acyl side, 3 side chain; on linkers, the order of the positions; unused ones are H or OH. Square brackets hold non-standard residues; d marks the D form. Side chains are listed from the residue outwards. Peptide text beside a SMILES is read from it. * marks the point of attachment. γGlu = O=C(O)[C@H](CCC(=O)[*:2])N[*:1]; αMeF = C[C@](N)(Cc1ccccc1)C(=O)O; αMeK = C[C@](N)(CCCCN)C(=O)O; Lauroyl = CCCCCCCCCCCC(=O)*; αMeS = C[C@](N)(CO)C(=O)O; AEEA = NCCOCCOCC(=O)O; Aib = CC(C)(N)C(=O)O
Tests used:
[1] = target: T1, human glucagon receptor (GCGR) (Homo sapiens, UniProt P47871); assay: cAMP assay, human GCGR cells; type: cell-based
T1 construct: expressed in transfected cells
Experimental: (§1) Sample dilutions are made in duplicate.
(§2) A frozen cryo-vial of cells expressing the receptor of interest is thawed rapidly in a water-bath, transferred to pre-warmed assay buffer and spun at 240×g for 5 minutes. Cells are re-suspended in assay buffer at a batch-dependent optimized concentration (e.g. hGCGR cells at 2×10^5 cells/ml, hGLP-1R and hGIPR cells at 1×10^5 cells/ml).
(§3) To this, 5 μL cell suspension is added and the plates incubated at room temperature for 30 minutes.
(§4) cAMP levels are measured using a commercially available cAMP dynamic 2 HTRF kit (Cisbio, Cat #62AM4PEJ), following the two step protocol as per manufacturer's recommendations. In brief; anti-cAMP cryptate (donor fluorophore) and cAMP-d2 (acceptor fluorophore) are made up separately by diluting each 1/20 in conjugate & lysis buffer provided in the kit. 5 μL anti-cAMP cryptate is added to wells of the assay plate, and 5 μL cAMP-d2 is added to wells except non-specific binding (NSB) wells, to which conjugate and lysis buffer are added. […] EC50 values of the synthetic peptides determined in cAMP assays are then determined.
(§5) Data is transformed to % Delta F as described in the manufacturer's guidelines and analyzed by 4-parameter logistic fit to determine EC50 values. […] To compare the balance of activities at the GLP-1R and GCGR between different peptides and across different conditions, these can be correlated, where the EC50's are related to those of comparator peptides.

[2] = target: T2, human glucose-dependent insulinotropic peptide receptor (GIPR) (Homo sapiens, UniProt P48546); assay: cAMP assay, human GIPR cells; type: cell-based
T2 construct: expressed in transfected cells
T2 sequence (P48546 22-466): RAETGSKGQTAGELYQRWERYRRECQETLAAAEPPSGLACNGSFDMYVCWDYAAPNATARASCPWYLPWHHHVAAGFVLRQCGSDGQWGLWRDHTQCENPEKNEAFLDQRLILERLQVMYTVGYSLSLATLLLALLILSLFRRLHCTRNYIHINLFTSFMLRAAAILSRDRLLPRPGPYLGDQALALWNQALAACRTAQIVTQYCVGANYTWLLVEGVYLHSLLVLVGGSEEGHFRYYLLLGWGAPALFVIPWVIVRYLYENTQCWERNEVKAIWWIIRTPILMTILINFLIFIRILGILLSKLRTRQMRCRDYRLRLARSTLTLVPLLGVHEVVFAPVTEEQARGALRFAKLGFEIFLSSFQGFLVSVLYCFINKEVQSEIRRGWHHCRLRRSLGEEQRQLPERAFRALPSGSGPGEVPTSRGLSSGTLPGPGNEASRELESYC
Experimental: as §1, §2, §3, §4, §5

[3] = cAMP assay, first determination (n1), read-out: Primary assay EC50 Gluc-R (n1)
[4] = cAMP assay, second determination (n2), read-out: Primary assay EC50 Gluc-R (n2)
[5] = cAMP assay, first determination (n1), read-out: Primary assay EC50 GIP-R (n1)
[6] = cAMP assay, second determination (n2), read-out: Primary assay EC50 GIP-R (n2)
[7] = tris-lipidated peptides, first replicate, read-out: Primary assay EC50 GIP-R (n1)
[8] = tris-lipidated peptides, second replicate, read-out: Primary assay EC50 Gluc-R (n2)

T1 sequence (P47871 26-477): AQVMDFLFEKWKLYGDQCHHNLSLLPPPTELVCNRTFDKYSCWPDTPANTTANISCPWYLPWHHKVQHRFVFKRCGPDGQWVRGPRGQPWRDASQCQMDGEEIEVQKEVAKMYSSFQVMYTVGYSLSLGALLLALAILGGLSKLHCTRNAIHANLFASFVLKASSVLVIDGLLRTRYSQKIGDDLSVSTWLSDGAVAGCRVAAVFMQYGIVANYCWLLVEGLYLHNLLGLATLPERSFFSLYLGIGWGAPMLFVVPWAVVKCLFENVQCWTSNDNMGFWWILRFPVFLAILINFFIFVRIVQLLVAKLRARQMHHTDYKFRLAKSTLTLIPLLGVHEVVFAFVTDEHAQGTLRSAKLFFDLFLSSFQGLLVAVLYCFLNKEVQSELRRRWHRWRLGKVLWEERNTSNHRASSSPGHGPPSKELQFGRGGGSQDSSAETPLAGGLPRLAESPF

SMILES	EC50 [1, 3] [nM]	EC50 [1, 4] [nM]	EC50 [2, 5] [nM]	EC50 [2, 6] [nM]	EC50 ([1]; tris-lipidated peptides, first replicate, read-out: Primary assay EC50 Gluc-R (n1)) [nM]	EC50 [2, 7] [nM]	EC50 [1, 8] [nM]
CC[C@H](C)[C@H](NC(=O)[C@](C)(Cc1ccccc1)NC(=O)[C@H](CCC(=O)O)NC(=O)[C@H](CCCCNC(=O)CC[C@H](NC(=O)CC[C@H](NC(=O)CCCCCCCCCCCCCCCCC(=O)O)C(=O)O)C(=O)O)NC(=O)[C@H](C)NC(=O)[C@H](C)NC(=O)[C@H](CCC(=O)O)NC(=O)CNC(=O)[C@H](CCC(=O)O)NC(=O)[C@H](CC(C)C)NC(=O)[C@](C)(Cc1ccccc1)NC(=O)[C@H](CO)NC(=O)[C@](C)(CO)NC(=O)[C@@H](NC(=O)[C@H](CC(=O)O)NC(=O)[C@H](CO)NC(=O)[C@@H](NC(=O)[C@](C)(Cc1ccccc1)NC(=O)[C@H](CO)NC(=O)CNC(=O)[C@H](CCC(=O)O)NC(=O)C(C)(C)NC(=O)[C@@H](N)Cc1c[nH]cn1)[C@@H](C)O)C(C)C)C(=O)N[C@@H](C)C(=O)N[C@@](C)(Cc1ccccc1)C(=O)N[C@H](C(=O)N[C@H](C(=O)N[C@@](C)(CCCCN)C(=O)NCC(=O)NCC(N)=O)C(C)C)C(C)C [compound 156]	≥ 27	≥ 27	≥ 27	≥ 27			
CC[C@H](C)[C@H](NC(=O)[C@](C)(Cc1ccccc1)NC(=O)[C@H](CCC(=O)O)NC(=O)[C@H](CCCCNC(=O)COCCOCCNC(=O)COCCOCCNC(=O)CCCCCCCCCCCCCCCCC(=O)O)NC(=O)[C@H](C)NC(=O)[C@H](C)NC(=O)[C@H](CCC(=O)O)NC(=O)CNC(=O)[C@H](CCC(=O)O)NC(=O)[C@H](CC(C)C)NC(=O)[C@](C)(Cc1ccccc1)NC(=O)[C@H](CO)NC(=O)[C@](C)(CO)NC(=O)[C@@H](NC(=O)[C@H](CC(=O)O)NC(=O)[C@H](CO)NC(=O)[C@@H](NC(=O)[C@](C)(Cc1ccccc1)NC(=O)[C@H](CO)NC(=O)CNC(=O)[C@H](CCC(=O)O)NC(=O)C(C)(C)NC(=O)[C@@H](N)Cc1c[nH]cn1)[C@@H](C)O)C(C)C)C(=O)N[C@@H](C)C(=O)N[C@@](C)(Cc1ccccc1)C(=O)N[C@H](C(=O)N[C@H](C(=O)N[C@@](C)(CCCCN)C(=O)NCC(=O)NCC(N)=O)C(C)C)C(C)C [compound 162]	≥ 26	≥ 26	≥ 26	≥ 26			
CCCCCCCCCCCC(=O)N[C@@H](CCC(=O)NCCOCCOCC(=O)NCCOCCOCC(=O)NCCCC[C@H](NC(=O)CNC(=O)[C@H](CCC(=O)O)NC(=O)[C@H](CC(C)C)NC(=O)[C@H](Cc1ccc(O)cc1)NC(=O)[C@H](CO)NC(=O)[C@H](CO)NC(=O)[C@H](CCCCNC(=O)COCCOCCNC(=O)COCCOCCNC(=O)CC[C@H](NC(=O)CCCCCCCCCCC)C(=O)O)NC(=O)[C@H](CC(=O)O)NC(=O)[C@H](CO)NC(=O)[C@@H](NC(=O)[C@](C)(Cc1ccccc1)NC(=O)[C@H](CO)NC(=O)CNC(=O)[C@H](CCC(=O)O)NC(=O)C(C)(C)NC(=O)[C@@H](N)Cc1c[nH]cn1)[C@@H](C)O)C(=O)N[C@@H](C)C(=O)N[C@@H](C)C(=O)N[C@@](C)(CCCCN)C(=O)N[C@@H](CCC(=O)O)C(=O)N[C@@H](Cc1ccccc1)C(=O)N[C@H](C(=O)N[C@@H](C)C(=O)N[C@@H](Cc1ccccc1)C(=O)N[C@@H](CCCCNC(=O)COCCOCCNC(=O)COCCOCCNC(=O)CC[C@H](NC(=O)CCCCCCCCCCC)C(=O)O)C(=O)N[C@H](C(=O)N[C@@H](CCC(=O)O)C(=O)NCC(=O)NCC(N)=O)C(C)C)[C@@H](C)CC)C(=O)O [compound 472] (H-H[Aib]EGS[αMeF]TSDK([AEEA-AEEA-γGlu-Lauroyl])SSYLEGK([AEEA-AEEA-γGlu-Lauroyl])AA[αMeK]EFIAFK([AEEA-AEEA-γGlu-Lauroyl])VEGG-NH2; N-terminus assumed)					19.9	19.9	
CCCCCCCCCCCC(=O)N[C@@H](CCC(=O)NCCOCCOCC(=O)NCCOCCOCC(=O)NCCCC[C@H](NC(=O)[C@H](CC(=O)O)NC(=O)[C@H](CO)NC(=O)[C@@H](NC(=O)[C@](C)(Cc1ccccc1)NC(=O)[C@H](CO)NC(=O)CNC(=O)[C@H](CCC(=O)O)NC(=O)C(C)(C)NC(=O)[C@@H](N)Cc1c[nH]cn1)[C@@H](C)O)C(=O)N[C@@H](CO)C(=O)N[C@@H](CO)C(=O)N[C@@H](Cc1ccc(O)cc1)C(=O)N[C@@H](CC(C)C)C(=O)N[C@@H](CCC(=O)O)C(=O)NCC(=O)N[C@@H](CCC(=O)O)C(=O)N[C@@H](C)C(=O)N[C@@H](C)C(=O)N[C@@](C)(CCCCN)C(=O)N[C@@H](CCCCNC(=O)COCCOCCNC(=O)COCCOCCNC(=O)CC[C@H](NC(=O)CCCCCCCCCCC)C(=O)O)C(=O)N[C@@H](Cc1ccccc1)C(=O)N[C@H](C(=O)N[C@@H](C)C(=O)N[C@@H](Cc1ccccc1)C(=O)N[C@@H](CCCCNC(=O)COCCOCCNC(=O)COCCOCCNC(=O)CC[C@H](NC(=O)CCCCCCCCCCC)C(=O)O)C(=O)N[C@H](C(=O)N[C@@H](CCC(=O)O)C(=O)NCC(=O)NCC(N)=O)C(C)C)[C@@H](C)CC)C(=O)O [compound 474] (H-H[Aib]EGS[αMeF]TSDK([AEEA-AEEA-γGlu-Lauroyl])SSYLEGEAA[αMeK]K([AEEA-AEEA-γGlu-Lauroyl])FIAFK([AEEA-AEEA-γGlu-Lauroyl])VEGG-NH2; N-terminus assumed)						19.9	19.9
CCCCCCCCCCCC(=O)N[C@@H](CCC(=O)NCCOCCOCC(=O)NCCOCCOCC(=O)NCCCC[C@H](NC(=O)[C@H](CCC(=O)O)NC(=O)CNC(=O)[C@H](CCC(=O)O)NC(=O)[C@H](CC(C)C)NC(=O)[C@H](CCCCNC(=O)COCCOCCNC(=O)COCCOCCNC(=O)CC[C@H](NC(=O)CCCCCCCCCCC)C(=O)O)NC(=O)[C@H](CO)NC(=O)[C@](C)(CO)NC(=O)[C@@H](NC(=O)[C@H](CC(=O)O)NC(=O)[C@H](CO)NC(=O)[C@@H](NC(=O)[C@](C)(Cc1ccccc1)NC(=O)[C@H](CO)NC(=O)CNC(=O)[C@H](CCC(=O)O)NC(=O)C(C)(C)NC(=O)[C@@H](N)Cc1c[nH]cn1)[C@@H](C)O)C(C)C)C(=O)N[C@@H](C)C(=O)N[C@@](C)(CCCCN)C(=O)N[C@@H](CCC(=O)O)C(=O)N[C@@H](Cc1ccccc1)C(=O)N[C@H](C(=O)N[C@@H](C)C(=O)N[C@@H](Cc1ccccc1)C(=O)N[C@@H](CCCCNC(=O)COCCOCCNC(=O)COCCOCCNC(=O)CC[C@H](NC(=O)CCCCCCCCCCC)C(=O)O)C(=O)N[C@H](C(=O)N[C@@H](CCC(=O)O)C(=O)NCC(=O)NCC(N)=O)C(C)C)[C@@H](C)CC)C(=O)O [compound 481] (H-H[Aib]EGS[αMeF]TSDV[αMeS]SK([AEEA-AEEA-γGlu-Lauroyl])LEGEK([AEEA-AEEA-γGlu-Lauroyl])A[αMeK]EFIAFK([AEEA-AEEA-γGlu-Lauroyl])VEGG-NH2; N-terminus assumed)						19.8	19.8
